The source of these data is patent US20070071782A1, “2-Cyanobenzenesulfonamides for combating animal pests” (priority 2003, published 2007).

Structures are written as SMILES.

Holding throughout (type): in vivo
In series [1] the test system is Argentine ants, Linepithema humile. Kind of series: whole plant or invertebrate. The settings on record: for mortality at 1 % strength: Linepithema humile, 144 h, read-out: Mean cumulative % mortality 6 days after treatment. As for the experimental part:
• a) The tests were conducted in petri dishes. Ants were given a water source and then were starved of a food source for 24 hours. Baits were prepared with 20% honey/water solution. A solution of the active ingredient in acetone was added to reach a concentration of the active ingredient of 1% by weight (w/w). 0.2 ml of the active ingredient containing honey/water solution, placed in a cap, was added to each dish. The dishes were covered and maintained at a water temperature of 22° C. […]
b) The tests were conducted as in example a). The following compounds I and II according to EP 33984 were used as comparative examples.

For series [2], the system named is Green Peach Aphid (Myzus persicae). Description: Green Peach Aphid leaf-dip test on pepper plants. The settings on record: foliar, 120 h, after 5 days, read-out: mortality in comparison with untreated controls. The protocol:
(§1) The active compounds were formulated in 50:50 acetone:water and 100 ppm Kinetic® surfactant.
Pepper plants in the 2nd leaf-pair stage (variety ‘California Wonder’) were infested with approximately 40 laboratory-reared aphids by placing infested leaf sections on top of the test plants. The leaf sections were removed after 24 hr. The leaves of the intact plants were dipped into gradient solutions of the test compound and allowed to dry. Test plants were maintained under fluorescent light (24 hour photoperiod) at about 25° C. and 20-40% relative humidity. Aphid mortality on the treated plants, relative to mortality on check plants, was determined after 5 days.

Series [3] concerns Cotton Aphid (Aphis gossypii). Kind of series: Cotton Aphid cotyledon-dip test on cotton plants. The settings on record: 120 h, after 5 days, read-out: mortality in comparison with untreated controls.
Excerpt: as §1
Cotton plants in the cotyledon stage (variety ‘Delta Pine’, one plant per pot) were infested by placing a heavily infested leaf from the main colony on top of each cotyledons. The aphids were allowed to transfer to the host plant overnight, and the leaf used to transfer the aphids were removed. The cotyledons were dipped in the test solution and allowed to dry. After 5 days, mortality counts were made.

A word on the mortality: it is the share of the test organisms that died. Consider `CCN(CC)S(=O)(=O)c1cccc(Cl)c1C#N` [Comparative Example I, reference compound], for which the mortality at 1 % strength in series [1] worked out at 35.6%.
Still for that read-out and setting: as for `CCNS(=O)(=O)c1cccc(Cl)c1C#N` [Comparative Example II, reference compound], the figure is 35.6%.
Consider `CCCNS(=O)(=O)c1cccc(C)c1C#N` [Compound 1, n-Propyl-(2-cyano-3-methyl-phenyl)sulfonamide], for which, in series [2], the mortality at 300 ppm is greater than 85%.
Consider `CNS(=O)(=O)c1cccc(OC)c1C#N` [Compound 2, Methyl-(2-cyano-3-methoxy-phenyl)sulfonamide], for which the mortality at 300 ppm in series [3] and in series [2] was greater than 85% in each case.
As to `CCNS(=O)(=O)c1ccc(Cl)c(C)c1C#N` [Compound 3, Ethyl-(4-chloro-2-cyano-3-methyl-phenyl)sulfonamide], the mortality at 300 ppm in series [3] and in series [2] was greater than 85% throughout.
With `CCNS(=O)(=O)c1cccc(OC(F)F)c1C#N` [Compound 66], in series [1] (in vivo), the “Mean cumulative % mortality 6 days after treatment” value amounted to 100.0% and the “mortality compared to untreated controls” value amounted to 100%.
Regarding `N#Cc1c(OC(F)F)cccc1S(N)(=O)=O` [Compound 78], the “mortality compared to untreated controls” value in series [1] (in vivo) was 100%.
Same read-out and setting: as for `C#CCNS(=O)(=O)c1cccc(OC(F)F)c1C#N` [Compound 79], the figure is 100%.
